Data on ten molecules can be found in patent US11807693B2 (priority 2014, dated 2023).

Starred links: 1 amine or outer side, 2 acyl side, 3 side chain; linkers in the order of their positions; H or OH if unused. Non-standard residues stand in square brackets, D forms with d. Residues, ends and D or L forms follow the SMILES beside them. *: point of attachment. dBip = N[C@H](Cc1ccc(-c2ccccc2)cc1)C(=O)O; Oic = O=C(O)[C@@H]1C[C@@H]2CCCC[C@@H]2N1; Phe(4-Cl) = N[C@@H](Cc1ccc(Cl)cc1)C(=O)O; dPhe(4-Cl) = N[C@H](Cc1ccc(Cl)cc1)C(=O)O; Phe(4-I) = N[C@@H](Cc1ccc(I)cc1)C(=O)O; γGlu = O=C(O)[C@H](CCC(=O)[*:2])N[*:1]; 2Nal = N[C@@H](Cc1ccc2ccccc2c1)C(=O)O; NMeR = CN[C@@H](CCCNC(=N)N)C(=O)O; Tridecanoyl = CCCCCCCCCCCCC(=O)*; hArg = N=C(N)NCCCC[C@H](N)C(=O)O; Cha = N[C@@H](CC1CCCCC1)C(=O)O; NMeL = CN[C@@H](CC(C)C)C(=O)O; αMeL = CC(C)C[C@](C)(N)C(=O)O; β3hN = NC(=O)C[C@H](N)CC(=O)O; Nle = CCCC[C@H](N)C(=O)O; AEEA = NCCOCCOCC(=O)O; Aib = CC(C)(N)C(=O)O

The target in the first assay is T1, rat APJ receptor (Rattus norvegicus, UniProt Q9JHG3).
T1 construct: expressed in transfected cells
T1 sequence (Q9JHG3 1-377): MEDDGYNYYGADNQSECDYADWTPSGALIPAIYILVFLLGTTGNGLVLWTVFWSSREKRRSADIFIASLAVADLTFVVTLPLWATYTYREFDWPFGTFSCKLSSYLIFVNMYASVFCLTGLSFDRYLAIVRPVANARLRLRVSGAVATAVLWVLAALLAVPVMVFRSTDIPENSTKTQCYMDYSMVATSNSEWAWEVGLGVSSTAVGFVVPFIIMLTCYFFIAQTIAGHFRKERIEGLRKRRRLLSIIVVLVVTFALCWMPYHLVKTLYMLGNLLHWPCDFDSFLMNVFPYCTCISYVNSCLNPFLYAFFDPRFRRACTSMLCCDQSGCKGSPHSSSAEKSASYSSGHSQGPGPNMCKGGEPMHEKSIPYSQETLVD
The assay is described as follows: [35S] GTPγS assay, rat APJ receptor. It is filed as biochemical. As to conditions: Table 16, read-out: EC50 Rat APJ Receptor. On the procedure:
The membranes were incubated with modified peptides in the assay buffer. […] Bound [^35S] GTPγS was separated from free radiolabel by filtration. The filter bound radioactivity was determined by liquid scintillation counting.
For `CCCCCCCCCCCCC(=O)N[C@@H](CCC(=O)NCCOCCOCC(=O)NCCOCCOCC(=O)N[C@@H](CCC(N)=O)C(=O)N[C@@H](CCCNC(=N)N)C(=O)N1CCC[C@H]1C(=O)N(C)[C@@H](CCCNC(=N)N)C(=O)N[C@@H](CC(C)C)C(=O)N[C@@H](CO)C(=O)N[C@@H](Cc1c[nH]cn1)C(=O)N[C@@H](CCCCN)C(=O)NCC(=O)N1CCC[C@H]1C(=O)N[C@@H](CCCC)C(=O)N[C@@H](Cc1ccc2ccccc2c1)C(=O)O)C(=O)O` [compound 403] ({Tridecanoyl-γGlu-AEEA-AEEA}-QRP[NMeR]LSHKGP[Nle][2Nal]-OH), the EC50 (as a rule, the concentration at which the effect is half-maximal) is 8.1 nM.

For the molecule `CCCCCCCCCCCCC(=O)N[C@@H](CCC(=O)NCCOCCOCC(=O)NCCOCCOCC(=O)N[C@@H](CCC(N)=O)C(=O)N[C@@H](CCCNC(=N)N)C(=O)N1CCC[C@H]1C(=O)N[C@@H](CCCCNC(=N)N)C(=O)N[C@@](C)(CC(C)C)C(=O)N[C@@H](CO)C(=O)N[C@@H](Cc1c[nH]cn1)C(=O)N[C@@H](CCCCN)C(=O)NCC(=O)N1CCC[C@H]1C(=O)N[C@@H](CCCC)C(=O)N1CCC[C@H]1C(=O)N[C@@H](Cc1ccc2ccccc2c1)C(=O)O)C(=O)O` [compound 404] ({Tridecanoyl-γGlu-AEEA-AEEA}-QRP[hArg][αMeL]SHKGP[Nle]P[2Nal]-OH), the EC50 is 0.361 nM.

Consider `CCCCCCCCCCCCC(=O)N[C@@H](CCC(=O)NCCOCCOCC(=O)NCCOCCOCC(=O)N[C@@H](CCC(N)=O)C(=O)N[C@@H](CCCCNC(=N)N)C(=O)N1CCC[C@H]1C(=O)N(C)[C@@H](CCCNC(=N)N)C(=O)N[C@@H](CC1CCCCC1)C(=O)N[C@@H](CO)C(=O)N[C@@H](Cc1c[nH]cn1)C(=O)N[C@@H](CCCCN)C(=O)NCC(=O)N1[C@H](C(=O)N[C@@H](CCCC)C(=O)N2CCC[C@H]2C(=O)N[C@@H](Cc2ccc3ccccc3c2)C(=O)O)C[C@@H]2CCCC[C@@H]21)C(=O)O` [compound 405] ({Tridecanoyl-γGlu-AEEA-AEEA}-Q[hArg]P[NMeR][Cha]SHKG[Oic][Nle]P[2Nal]-OH), for which the concentration for a half-maximal effect (EC50) turned out to be 13.8 nM.

On to `CCCCCCCCCCCCC(=O)N[C@@H](CCC(=O)NCCOCCOCC(=O)NCCOCCOCC(=O)N[C@@H](CCC(N)=O)C(=O)N[C@@H](CCCNC(=N)N)C(=O)N1CCC[C@H]1C(=O)N(C)[C@@H](CCCNC(=N)N)C(=O)N[C@@H](CC1CCCCC1)C(=O)N[C@@H](CO)C(=O)N[C@@H](Cc1c[nH]cn1)C(=O)N[C@@H](CCCCN)C(=O)NCC(=O)NC(C)(C)C(=O)N[C@@H](CCCC)C(=O)N1CCC[C@H]1C(=O)N[C@@H](Cc1ccc(Cl)cc1)C(=O)O)C(=O)O` [compound 414] ({Tridecanoyl-γGlu-AEEA-AEEA}-QRP[NMeR][Cha]SHKG[Aib][Nle]P[Phe(4-Cl)]-OH), for which the EC50 was found to be 3.79 nM.

The assay is the same for the next values; noted with them: rat APJ receptor, read-out: EC50 Rat APJ Receptor.
Regarding `CCCC[C@H](NC(=O)[C@@H]1CCCN1C(=O)CNC(=O)[C@H](CCCCN)NC(=O)[C@H](Cc1c[nH]cn1)NC(=O)[C@H](CO)NC(=O)[C@H](CC(C)C)N(C)C(=O)[C@H](CCCNC(=N)N)N(C)C(=O)[C@@H]1CCCN1C(=O)[C@H](CCCNC(=N)N)NC(=O)[C@H](CCC(N)=O)NC(=O)[C@H](CCCNC(=N)N)NC(C)=O)C(=O)N1CCC[C@H]1C(=O)N[C@@H](Cc1ccc(Cl)cc1)C(=O)O` [compound 67] (Ac-RQRP[NMeR][NMeL]SHKGP[Nle]P[Phe(4-Cl)]-OH), the EC50 was determined as 1.4 nM.

As for `CCCCCCCCCCCCC(=O)N[C@@H](CCC(=O)NCCOCCOCC(=O)NCCOCCOCC(=O)N[C@@H](CC(N)=O)CC(=O)N[C@@H](CCCCNC(=N)N)C(=O)N1CCC[C@H]1C(=O)N(C)[C@@H](CCCNC(=N)N)C(=O)N[C@@H](CC1CCCCC1)C(=O)N[C@@H](CO)C(=O)N[C@@H](Cc1c[nH]cn1)C(=O)N[C@@H](CCCCN)C(=O)NCC(=O)N1[C@H](C(=O)N[C@@H](CCCC)C(=O)N2CCC[C@H]2C(=O)N[C@H](Cc2ccc(Cl)cc2)C(=O)O)C[C@@H]2CCCC[C@@H]21)C(=O)O` [compound 299] ({Tridecanoyl-γGlu-AEEA-AEEA}-[β3hN][hArg]P[NMeR][Cha]SHKG[Oic][Nle]P[dPhe(4-Cl)]-OH), the EC50 worked out at 14.6 nM.

With `CCCCCCCCCCCCC(=O)N[C@@H](CCC(=O)NCCOCCOCC(=O)NCCOCCOCC(=O)N[C@@H](CCCCNC(=N)N)C(=O)N[C@H](CCCNC(=N)N)C(=O)N[C@@H](CCC(N)=O)C(=O)N[C@@H](CCCCNC(=N)N)C(=O)N1CCC[C@H]1C(=O)N[C@H](CCCNC(=N)N)C(=O)N(C)[C@@H](CC(C)C)C(=O)N[C@@H](C)C(=O)N[C@@H](Cc1c[nH]cn1)C(=O)N[C@@H](CCCC)C(=O)NCC(=O)N1[C@H](C(=O)N[C@@H](Cc2ccc(I)cc2)C(=O)N2CCC[C@H]2C(=O)N[C@H](Cc2ccc(-c3ccccc3)cc2)C(=O)O)C[C@@H]2CCCC[C@@H]21)C(=O)O` [compound 318] ({Tridecanoyl-γGlu-AEEA-AEEA}-[hArg][dR]Q[hArg]P[dR][NMeL]AH[Nle]G[Oic][Phe(4-I)]P[dBip]-OH), the EC50 amounted to 46 nM.

Consider `CCCCCCCCCCCCC(=O)N[C@@H](CCC(=O)NCCOCCOCC(=O)NCCOCCOCC(=O)N[C@@H](CCCCNC(=N)N)C(=O)N[C@@H](CCCC)C(=O)N[C@@H](CCC(N)=O)C(=O)N[C@@H](CCCCNC(=N)N)C(=O)N1CCC[C@H]1C(=O)N[C@H](CCCNC(=N)N)C(=O)N(C)[C@@H](CC(C)C)C(=O)N[C@@H](CO)C(=O)N[C@@H](C)C(=O)N[C@@H](CCCCN)C(=O)NCC(=O)N1[C@H](C(=O)N[C@@H](Cc2ccc(I)cc2)C(=O)N2CCC[C@H]2C(=O)N[C@H](Cc2ccc(-c3ccccc3)cc2)C(=O)O)C[C@@H]2CCCC[C@@H]21)C(=O)O` [compound 327] ({Tridecanoyl-γGlu-AEEA-AEEA}-[hArg][Nle]Q[hArg]P[dR][NMeL]SAKG[Oic][Phe(4-I)]P[dBip]-OH), for which the EC50 was found to be 14.8 nM.

Consider `CCCCCCCCCCCCC(=O)N[C@@H](CCC(=O)NCCOCCOCC(=O)NCCOCCOCC(=O)N[C@@H](CCCCNC(=N)N)C(=O)N[C@H](CCCNC(=N)N)C(=O)N[C@@H](CCC(N)=O)C(=O)N[C@@H](CCCC)C(=O)N1CCC[C@H]1C(=O)N[C@H](CCCNC(=N)N)C(=O)N(C)[C@@H](CC(C)C)C(=O)N[C@@H](C)C(=O)N[C@@H](C)C(=O)N[C@@H](CCCCN)C(=O)NCC(=O)N1[C@H](C(=O)N[C@@H](Cc2ccc(I)cc2)C(=O)N2CCC[C@H]2C(=O)N[C@H](Cc2ccc(-c3ccccc3)cc2)C(=O)O)C[C@@H]2CCCC[C@@H]21)C(=O)O` [compound 334] ({Tridecanoyl-γGlu-AEEA-AEEA}-[hArg][dR]Q[Nle]P[dR][NMeL]AAKG[Oic][Phe(4-I)]P[dBip]-OH), for which the 50% effective concentration (EC50) worked out at 44.7 nM.

For `CCCCCCCCCCCCC(=O)N[C@@H](CCC(=O)NCCOCCOCC(=O)NCCOCCOCC(=O)NCCOCCOCC(=O)NCCOCCOCC(=O)NCCOCCOCC(=O)NCCOCCOCC(=O)N[C@@H](CCC(N)=O)C(=O)N[C@@H](CCCNC(=N)N)C(=O)N1CCC[C@H]1C(=O)N(C)[C@@H](CCCNC(=N)N)C(=O)N[C@@H](CC(C)C)C(=O)N[C@@H](CO)C(=O)N[C@@H](Cc1c[nH]cn1)C(=O)N[C@@H](CCCCN)C(=O)NCC(=O)N1CCC[C@H]1C(=O)N[C@@H](CCCC)C(=O)N1CCC[C@H]1C(=O)N[C@@H](Cc1ccc(Cl)cc1)C(=O)O)C(=O)O` [compound 398], the EC50 is 0.116 nM.
